{"source": "patent US6444809B1", "about": "“Therapeutic heterocycles” (Zeneca Limited, priority 1993, dated 2002)", "key": {"human NK2 receptor": {"molecular_target": "T1, human NK2 receptor (Homo sapiens, UniProt P21452)", "T1 construct": "expressed in transfected cells", "T1 sequence (P21452 1-398)": "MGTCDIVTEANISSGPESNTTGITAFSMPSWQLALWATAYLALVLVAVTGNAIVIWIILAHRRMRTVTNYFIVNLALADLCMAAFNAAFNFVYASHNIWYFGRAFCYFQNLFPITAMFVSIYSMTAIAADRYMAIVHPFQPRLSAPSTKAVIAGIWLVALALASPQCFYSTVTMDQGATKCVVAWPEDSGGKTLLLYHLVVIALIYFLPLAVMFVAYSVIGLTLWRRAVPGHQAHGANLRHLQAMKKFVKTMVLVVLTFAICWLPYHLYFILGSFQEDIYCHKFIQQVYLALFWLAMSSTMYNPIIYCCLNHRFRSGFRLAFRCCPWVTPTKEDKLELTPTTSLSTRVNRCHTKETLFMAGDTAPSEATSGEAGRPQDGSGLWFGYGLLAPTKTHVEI", "assay": "Neurokinin A (NKA) receptor-binding assay (Test A), 3H-NKA binding to MEL cell membranes", "text": "Neurokinin A (NKA) Receptor-binding Assay (Test A)\nHeterologous protein expression in Mouse Erythroleukemia (MEL) cells uses the human globin locus control region (LCR) (F. Grosveld et al., Cell (1987) 51, 975-985). The cDNAs are inserted between the human beta-globin promoter and the second intron of the human beta-globin gene, and this expression cassette is then placed downstream of the LCR and transfected into MEL cells (M. Needham et al., Nucl. Acids Res. (1992) 20, 997-1003). Human NK2 receptor cDNA (A. Graham et al., Biochem. Biophys. Res. Commun. (1991) 177, 8-16) was isolated from human lung RNA by polymerase chain reaction and DNA sequenced. […] These were annealed and ligated to the hNK2R fragment by standard methods. Following cleavage with Hind III, the resulting fragment was cloned into the Hind III and Bam HI sites in the polylinker of the shuttle vector pMEG3. […] Directly after transfection, cells were diluted in culture medium to 10^4 and 10^5 cell per mL and 1 mL aliquots transferred to each well of a 24-well plate.\nG418 was added to a concentration of 1 mg/mL 24 hours after the transfection to select for stable transfectants. […]\nNonspecific binding is routinely defined with 1 μM NKA. […] The filters are deposited in scintillation vials and read in a Beckman LS 6000LL Scintillation Counter."}, "guinea pig trachea": {"system": "guinea pig trachea", "assay": "Guinea pig assay (Test B), antagonism of agonist (NKA or [β-Ala8]-NKA(4-10)) contraction of tracheal rings", "assay_type": "cell-based", "procedure": "Guinea Pig Assay (Test B)\nIn the test described below either NKA or [β-Ala^8]-NKA(4-10) is used as an agonist. The chosen agonist is refered to as AG throughout the description.\nMale guinea pigs are killed by a sharp blow to the back of the head. The trachea are removed, trimmed of excess tissue and divided into two segments. […] Initial tension placed on each tissue is 1 g, which is maintained throughout a 0.5 to 1.5 hour equilibration period before addition of other drugs. Contractile responses are measured on a Grass polygraph via Grass FT-03 force transducers.\nTissues are challenged repetitively with a single concentration of AG (10 nM) with intervening 30 min periods with washing to allow the tension to return to baseline levels. […] Percent inhibition is determined when a Compound produces a statistically significant (p<0.05) reduction of the contraction and is calculated using the second contractile response as 100%.\nPotencies of selected Compounds are evaluated by calculating apparent dissociation constants (KB) for each concentration tested using the standard equation: […]\nwhere dose ratio=antilog[(AG −log molar EC50 without Compound) −(AG−log molar EC50 with Compound)]. The KB values may be converted to the negative logarithms and expressed as −log molar KB (i.e. PKB). […] The EC50 values are converted to the negative logarithms and expressed as −log molar EC50. […]"}}, "note": "Where a name gives a salt, the structure may show the parent alone."}
{"smiles": "CN(CC(CCN1CCC(N2CCOC2=O)CC1)c1ccc(Cl)c(Cl)c1)C(=O)c1ccccc1.Cl", "note": "(stereo not shown) [Example 1, N-[2-(3,4-Dichlorophenyl)-4-[4-(2-oxo-1,3-oxazolidin-3-yl)piperidino]butyl]-N-methylbenzamide hydrochoride]", "values": [{"measurement": "NK2 antagonist activity in the in vitro screen (Test A)", "setting": "human NK2 receptor; result in words", "value": "potent NK2 antagonist"}, {"measurement": "NK2 antagonist activity in the functional assay (Test B)", "setting": "guinea pig trachea; result in words", "value": "potent NK2 antagonist"}]}
{"smiles": "CN(C[C@@H](CCN1CCC(N2CCCOC2=O)CC1)c1ccc(Cl)c(Cl)c1)C(=O)c1ccccc1", "note": "[Example 2, (S)-N-[2-(3,4-Dichlorophenyl)-4-(2-oxoperhydro-1,3-oxa-zin-3-yl)piperidino]butyl]-N-methylbenzamide hydrochloride]", "values": [{"measurement": "Ki", "setting": "human NK2 receptor; Test A, typically found", "value": 4.1, "unit": "nM"}, {"measurement": "Kb", "setting": "guinea pig trachea; Cavia porcellus, Test B, -log molar apparent dissociation constant KB", "value": 2, "unit": "nM"}]}
